Test system: 349418-098-R tumor spheroid viability
Test: Anticancer human tumor 349418-098-R patient-derived lung adenocarcinoma cell line growth inhibition
Conditions: spheroids with HUVEC and MSC; for viability, T/C: stronger effect = lower value
Summary of the method: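 Complex spheroids of malignant cells with endothelial cells and mesenchymal stem cells; agents alone or combined, from near clinical Cmax (or 10 microM if unknown) down in half-log steps, 0.25% DMSO final.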
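Note: spheroids exposed to compound for 7 days before measurement.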
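Throughout, for viability, T/C: percent of vehicle control viability with 100% = DMSO-treated spheroids.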

In the case of `CC1COCCN1c1cc(-c2ccnn2C)c2ccnc(-c3ccn[nH]3)c2n1` (stereo unspecified) + CC[C@@]1(O)C(=O)OCc2c1cc1n(c2=O)Cc2cc3c(CN(C)C)c(O)ccc3nc2-1, the IC50 (curve of first compound, second compound 0.003 µM) is reported as 0.079 µM, the IC50 (curve of first compound, second compound 0.00949 µM) is reported as less than 0.0316 µM and the IC50 (curve of first compound, second compound 0.03 µM) is reported as less than 0.0316 µM. The IC50 (curve of first compound, second compound 0.0949 µM) was less than 0.0316 µM, the IC50 (curve of first compound, second compound 0.3 µM) was less than 0.0316 µM and the viability, T/C (second compound 0.003 µM, first compound 0.0316 µM) was 107%. The viability, T/C (second compound 0.003 µM, first compound 0.1 µM) was 35.1%, the viability, T/C (second compound 0.003 µM, first compound 0.316 µM) was 16% and the viability, T/C (second compound 0.003 µM, first compound 1 µM) was 15%. For the same compound, the viability, T/C (second compound 0.003 µM, first compound 3.16 µM) was 15.6%, the viability, T/C (second compound 0.003 µM, first compound 10 µM) was 14% and the viability, T/C (second compound 0.00949 µM, first compound 0.0316 µM) was 42.4%. The viability, T/C (second compound 0.00949 µM, first compound 0.1 µM) was 20.4%, the viability, T/C (second compound 0.00949 µM, first compound 0.316 µM) was 13.6% and the viability, T/C (second compound 0.00949 µM, first compound 1 µM) was 16.2%. For the same compound, the viability, T/C (second compound 0.00949 µM, first compound 3.16 µM) was 12.8%, the viability, T/C (second compound 0.00949 µM, first compound 10 µM) was 12% and the viability, T/C (second compound 0.03 µM, first compound 0.0316 µM) was 13.5%. The viability, T/C (second compound 0.03 µM, first compound 0.1 µM) was 11.5%, the viability, T/C (second compound 0.03 µM, first compound 0.316 µM) was 9.56% and the viability, T/C (second compound 0.03 µM, first compound 1 µM) was 11.4%. The viability, T/C (second compound 0.03 µM, first compound 3.16 µM) was 11.6%, the viability, T/C (second compound 0.03 µM, first compound 10 µM) was 10.8% and the viability, T/C (second compound 0.0949 µM, first compound 0.0316 µM) was 5.41%. For the same compound, the viability, T/C (second compound 0.0949 µM, first compound 0.1 µM) was 6.47%, the viability, T/C (second compound 0.0949 µM, first compound 0.316 µM) was 5.98% and the viability, T/C (second compound 0.0949 µM, first compound 1 µM) was 6.27%. It also gave a viability, T/C (second compound 0.0949 µM, first compound 3.16 µM) of 7.68%, a viability, T/C (second compound 0.0949 µM, first compound 10 µM) of 8.39% and a viability, T/C (second compound 0.3 µM, first compound 0.0316 µM) of 3.23%. It also gave a viability, T/C (second compound 0.3 µM, first compound 0.1 µM) of 2.54%, a viability, T/C (second compound 0.3 µM, first compound 0.316 µM) of 2.76% and a viability, T/C (second compound 0.3 µM, first compound 1 µM) of 3.58%. For the same compound, the viability, T/C (second compound 0.3 µM, first compound 3.16 µM) was 4.37% and the viability, T/C (second compound 0.3 µM, first compound 10 µM) was 5.17%.

With `Cn1nnc2c(C(N)=O)ncn2c1=O` the viability, T/C (compound 1 µM) was 101% [middle of 10 runs], the viability, T/C (compound 3.16 µM) was 101% [middle of 10 runs] and the viability, T/C (compound 10 µM) was 100% [middle of 10 runs]. For the same compound, the viability, T/C (compound 31.6 µM) was 102% [middle of 10 runs], the viability, T/C (compound 100 µM) was 103% [middle of 10 runs] and the IC50 (compound alone, run of 10/17/2019) was greater than 100 µM.

`COc1ccc([C@@H](O)c2cc(-c3ncnc4cc(N5CCOCC5)ccc34)c(F)cc2Cl)nn1` + Cn1nnc2c(C(N)=O)ncn2c1=O gave an IC50 (curve of first compound, second compound 1 µM) of 5.61 µM, an IC50 (curve of first compound, second compound 3.16 µM) of 5.09 µM and an IC50 (curve of first compound, second compound 10 µM) of 5.17 µM. It also gave an IC50 (curve of first compound, second compound 31.6 µM) of 4.27 µM, an IC50 (curve of first compound, second compound 100 µM) of 3.61 µM and a viability, T/C (second compound 1 µM, first compound 0.0316 µM) of 97.6%. For the same compound, the viability, T/C (second compound 1 µM, first compound 0.1 µM) was 95.6%, the viability, T/C (second compound 1 µM, first compound 0.316 µM) was 101% and the viability, T/C (second compound 1 µM, first compound 1 µM) was 97.7%. The viability, T/C (second compound 1 µM, first compound 3.16 µM) was 73.3%, the viability, T/C (second compound 1 µM, first compound 10 µM) was 26.4% and the viability, T/C (second compound 3.16 µM, first compound 0.0316 µM) was 103%. It also gave a viability, T/C (second compound 3.16 µM, first compound 0.1 µM) of 99%, a viability, T/C (second compound 3.16 µM, first compound 0.316 µM) of 106% and a viability, T/C (second compound 3.16 µM, first compound 1 µM) of 102%. For the same compound, the viability, T/C (second compound 3.16 µM, first compound 3.16 µM) was 70.1%, the viability, T/C (second compound 3.16 µM, first compound 10 µM) was 21.3% and the viability, T/C (second compound 10 µM, first compound 0.0316 µM) was 99.8%. The viability, T/C (second compound 10 µM, first compound 0.1 µM) was 97.5%, the viability, T/C (second compound 10 µM, first compound 0.316 µM) was 103% and the viability, T/C (second compound 10 µM, first compound 1 µM) was 104%. It also gave a viability, T/C (second compound 10 µM, first compound 3.16 µM) of 66%, a viability, T/C (second compound 10 µM, first compound 10 µM) of 28.5% and a viability, T/C (second compound 31.6 µM, first compound 0.0316 µM) of 99.1%. The viability, T/C (second compound 31.6 µM, first compound 0.1 µM) was 104%, the viability, T/C (second compound 31.6 µM, first compound 0.316 µM) was 101% and the viability, T/C (second compound 31.6 µM, first compound 1 µM) was 106%. The viability, T/C (second compound 31.6 µM, first compound 3.16 µM) was 59.8%, the viability, T/C (second compound 31.6 µM, first compound 10 µM) was 22.2% and the viability, T/C (second compound 100 µM, first compound 0.0316 µM) was 102%. The viability, T/C (second compound 100 µM, first compound 0.1 µM) was 112%, the viability, T/C (second compound 100 µM, first compound 0.316 µM) was 107% and the viability, T/C (second compound 100 µM, first compound 1 µM) was 102%. For the same compound, the viability, T/C (second compound 100 µM, first compound 3.16 µM) was 53.4% and the viability, T/C (second compound 100 µM, first compound 10 µM) was 24.1%.
